From ChEMBL document CHEMBL5512604, “Small molecules targeting selected histone methyltransferases (HMTs) for cancer treatment: Current progress and novel strategies” (Eur J Med Chem, 2024) come the findings set out here.

Series [1] has as its target von Hippel-Lindau disease tumor suppressor/Histone-lysine N-methyltransferase EZH2 (Homo sapiens, UniProt Q15910+P40337). As to the kind of experiment: PROTAC activity at VHL/EZH2 in human MDA-MB-453 cells assessed as protein degradation incubated for 48 hrs by Western blot analysis. Format: cell-based.
The target in series [2] is T1, Histone-lysine N-methyltransferase EZH1 (Homo sapiens, UniProt Q92800).
T1 sequence (Q92800 whole entry): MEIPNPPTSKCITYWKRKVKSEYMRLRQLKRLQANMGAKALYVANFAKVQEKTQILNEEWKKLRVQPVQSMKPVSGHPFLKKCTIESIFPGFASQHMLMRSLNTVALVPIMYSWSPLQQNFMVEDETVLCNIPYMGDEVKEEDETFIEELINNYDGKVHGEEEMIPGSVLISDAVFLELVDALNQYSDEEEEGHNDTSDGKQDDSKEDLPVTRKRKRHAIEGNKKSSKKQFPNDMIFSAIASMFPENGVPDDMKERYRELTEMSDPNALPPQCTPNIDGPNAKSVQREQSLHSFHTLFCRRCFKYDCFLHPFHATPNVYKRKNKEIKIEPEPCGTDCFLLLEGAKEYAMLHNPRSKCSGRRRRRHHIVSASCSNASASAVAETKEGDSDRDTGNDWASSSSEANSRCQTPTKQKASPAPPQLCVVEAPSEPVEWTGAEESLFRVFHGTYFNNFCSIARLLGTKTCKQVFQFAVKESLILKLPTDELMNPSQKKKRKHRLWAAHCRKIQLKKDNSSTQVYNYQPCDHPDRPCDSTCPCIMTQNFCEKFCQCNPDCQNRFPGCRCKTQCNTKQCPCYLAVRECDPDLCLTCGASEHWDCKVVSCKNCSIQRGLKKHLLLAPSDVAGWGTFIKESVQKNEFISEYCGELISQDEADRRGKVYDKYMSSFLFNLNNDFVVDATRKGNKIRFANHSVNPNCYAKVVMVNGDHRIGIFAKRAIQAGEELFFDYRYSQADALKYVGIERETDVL
The experiment in a line: Displacement of [3H-SAM] from full-length EZH1 (2 to 746 residues) (unknown origin) using a core histone substrate.

In series [3] the target is Histone-lysine N-methyltransferase EZH2 (Homo sapiens, UniProt Q15910). The experiment in a line: Displacement of [3H-SAM] from full-length EZH2 (2 to 746 residues) (unknown origin) using a core histone substrate.
The subject of a further series is MDA-MB-453. The experiment in a line: Antiproliferative activity against human MDA-MB-453 cells assessed as inhibition of cell viability incubated for 5 days by CCK8 assay. It counts as functional, cell-based. The conditions noted are these: MDA-MB-453, 120 h.
Series [4] relates to SU-DHL-6. The experiment in a line: Antiproliferative activity against human SU-DHL-6 cells. Format: functional, cell-based.
The test system of series [5] is SU-DHL-6. As to the kind of experiment: Potency index, ratio of EPZ6438 IC50 to test compound IC50 for antiproliferative activity against human SU-DHL-6 cells. It counts as functional.
Series [6] deals with Bromodomain-containing protein 4 (Homo sapiens, UniProt O60885). The experiment in a line: Induction of BRD4 degradation in human 231MFP cells. Format: cell-based.
In series [7] the target is Histone deacetylase. The experiment in a line: Inhibition of HDAC in human K562 cells using Boc-K(Ac)-AMC as substrate. It counts as cell-based.
Series [8] addresses T2, Histone-lysine N-methyltransferase EHMT2 (Homo sapiens, UniProt Q96KQ7).
T2 sequence (Q96KQ7 whole entry): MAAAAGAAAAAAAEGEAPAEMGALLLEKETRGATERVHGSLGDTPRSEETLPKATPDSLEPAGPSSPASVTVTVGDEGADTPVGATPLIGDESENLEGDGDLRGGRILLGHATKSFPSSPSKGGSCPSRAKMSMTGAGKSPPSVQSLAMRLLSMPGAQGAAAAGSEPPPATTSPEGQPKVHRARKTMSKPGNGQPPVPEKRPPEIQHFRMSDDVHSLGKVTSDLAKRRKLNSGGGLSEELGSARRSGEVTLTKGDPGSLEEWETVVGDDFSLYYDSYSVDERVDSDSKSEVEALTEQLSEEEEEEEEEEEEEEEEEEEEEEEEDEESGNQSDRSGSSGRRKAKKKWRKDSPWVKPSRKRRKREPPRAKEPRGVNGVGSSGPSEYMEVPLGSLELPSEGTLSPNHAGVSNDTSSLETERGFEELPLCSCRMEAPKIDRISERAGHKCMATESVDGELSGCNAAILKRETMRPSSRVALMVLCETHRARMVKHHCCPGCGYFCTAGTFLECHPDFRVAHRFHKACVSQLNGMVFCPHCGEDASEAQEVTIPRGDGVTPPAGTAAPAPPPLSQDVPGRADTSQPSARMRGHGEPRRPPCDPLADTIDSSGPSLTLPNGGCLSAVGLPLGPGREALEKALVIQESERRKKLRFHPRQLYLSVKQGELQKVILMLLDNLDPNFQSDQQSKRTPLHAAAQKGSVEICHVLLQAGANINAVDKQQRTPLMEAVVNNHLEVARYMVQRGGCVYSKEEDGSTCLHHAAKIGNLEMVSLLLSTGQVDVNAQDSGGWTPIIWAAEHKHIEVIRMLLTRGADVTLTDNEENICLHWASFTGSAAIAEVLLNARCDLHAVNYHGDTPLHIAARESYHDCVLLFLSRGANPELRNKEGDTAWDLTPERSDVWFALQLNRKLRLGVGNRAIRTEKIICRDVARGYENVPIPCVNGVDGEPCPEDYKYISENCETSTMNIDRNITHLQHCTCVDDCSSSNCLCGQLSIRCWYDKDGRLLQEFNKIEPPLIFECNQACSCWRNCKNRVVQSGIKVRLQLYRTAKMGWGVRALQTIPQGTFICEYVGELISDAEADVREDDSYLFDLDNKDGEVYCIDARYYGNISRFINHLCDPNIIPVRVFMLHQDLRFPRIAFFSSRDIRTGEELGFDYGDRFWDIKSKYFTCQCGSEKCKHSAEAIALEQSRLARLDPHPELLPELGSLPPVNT
As to the kind of experiment: Inhibition of G9a in human MDA-MB-231 cells assessed as decrease in H3K9Me2 level by ICW assay. Format: cell-based.

In the next series the test system is MDA-MB-231. As to the kind of experiment: Antiproliferative activity against human MDA-MB-231 cells assessed as inhibition of cell growth incubated for 72 hrs. The conditions noted are these: MDA-MB-231, 72 h. It counts as functional, cell-based.
Another series concerns MCF7. As to the kind of experiment: Antiproliferative activity against human MCF7 cells assessed as inhibition of cell growth incubated for 72 hrs. Format: functional, cell-based. The conditions noted are these: MCF7, 72 h.
A further series concerns A549. The experiment in a line: Antiproliferative activity against human A549 cells assessed as inhibition of cell growth incubated for 72 hrs. The conditions noted are these: A549, 72 h. Format: functional, cell-based.
The target in series [9] is Histone deacetylase. The experiment in a line: Inhibition of HDAC in human HeLa cells using Boc-K(Ac)-AMC as substrate. Format: cell-based.
A short description of the next series: in vitro. The conditions noted are these: human, HEK293 cells.
The target of series [10] is Protein arginine N-methyltransferase 5 (Homo sapiens, UniProt O14744). The experiment in a line: Inhibition of PRMT5 (unknown origin) by HotSpot profiling analysis.
Protein arginine N-methyltransferase 5, sequence (O14744 whole entry): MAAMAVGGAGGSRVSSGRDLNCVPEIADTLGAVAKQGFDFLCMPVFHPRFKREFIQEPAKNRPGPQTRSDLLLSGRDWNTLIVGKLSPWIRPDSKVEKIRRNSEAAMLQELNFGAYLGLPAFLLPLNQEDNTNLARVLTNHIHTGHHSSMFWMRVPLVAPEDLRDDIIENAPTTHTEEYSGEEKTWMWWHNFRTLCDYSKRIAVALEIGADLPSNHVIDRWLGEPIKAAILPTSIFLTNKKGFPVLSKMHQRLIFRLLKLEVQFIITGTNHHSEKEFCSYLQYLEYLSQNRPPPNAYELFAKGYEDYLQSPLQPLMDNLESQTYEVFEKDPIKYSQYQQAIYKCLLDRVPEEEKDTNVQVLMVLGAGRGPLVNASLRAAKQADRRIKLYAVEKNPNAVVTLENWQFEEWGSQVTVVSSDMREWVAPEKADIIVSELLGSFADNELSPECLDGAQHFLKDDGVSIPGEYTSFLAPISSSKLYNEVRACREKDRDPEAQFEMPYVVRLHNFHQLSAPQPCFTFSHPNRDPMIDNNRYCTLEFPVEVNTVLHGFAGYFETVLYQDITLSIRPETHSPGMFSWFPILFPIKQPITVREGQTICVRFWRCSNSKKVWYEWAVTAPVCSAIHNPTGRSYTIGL

Histone-lysine N-methyltransferase EZH2, sequence (Q15910 whole entry, the tested form may be a part): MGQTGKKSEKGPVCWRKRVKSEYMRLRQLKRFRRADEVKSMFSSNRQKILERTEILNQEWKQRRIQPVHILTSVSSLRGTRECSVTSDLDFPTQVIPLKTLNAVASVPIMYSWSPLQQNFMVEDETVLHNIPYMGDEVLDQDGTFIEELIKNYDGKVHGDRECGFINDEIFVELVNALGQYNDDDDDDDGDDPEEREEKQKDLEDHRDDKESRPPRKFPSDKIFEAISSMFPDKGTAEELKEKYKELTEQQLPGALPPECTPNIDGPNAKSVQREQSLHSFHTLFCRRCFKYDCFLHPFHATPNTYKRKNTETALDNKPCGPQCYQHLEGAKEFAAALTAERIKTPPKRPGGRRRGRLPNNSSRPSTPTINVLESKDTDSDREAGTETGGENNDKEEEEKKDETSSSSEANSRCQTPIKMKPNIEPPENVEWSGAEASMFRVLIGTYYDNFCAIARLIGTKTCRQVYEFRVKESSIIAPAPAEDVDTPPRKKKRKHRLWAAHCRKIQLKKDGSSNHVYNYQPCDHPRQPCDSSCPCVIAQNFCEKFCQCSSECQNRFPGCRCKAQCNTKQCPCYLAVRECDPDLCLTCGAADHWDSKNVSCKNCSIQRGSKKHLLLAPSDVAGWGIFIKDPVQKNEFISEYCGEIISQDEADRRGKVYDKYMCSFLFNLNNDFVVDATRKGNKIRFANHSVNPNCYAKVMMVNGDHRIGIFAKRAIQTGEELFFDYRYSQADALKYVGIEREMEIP
von Hippel-Lindau disease tumor suppressor/Histone-lysine N-methyltransferase EZH2, sequence (Q15910 whole entry): as the sequence (Q15910 whole entry, the tested form may be a part) above
von Hippel-Lindau disease tumor suppressor/Histone-lysine N-methyltransferase EZH2, sequence (P40337 whole entry): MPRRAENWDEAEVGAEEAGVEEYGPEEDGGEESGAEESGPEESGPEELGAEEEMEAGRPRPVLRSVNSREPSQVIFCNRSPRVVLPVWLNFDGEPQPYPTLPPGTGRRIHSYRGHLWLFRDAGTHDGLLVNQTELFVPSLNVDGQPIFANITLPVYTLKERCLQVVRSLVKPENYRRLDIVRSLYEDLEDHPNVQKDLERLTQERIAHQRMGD

With `CCN(c1cc(-c2ccc(CN3CCN(C(=O)CCCCCCCC(=O)N[C@H](C(=O)N4C[C@H](O)C[C@H]4C(=O)NCc4ccc(-c5scnc5C)cc4)C(C)(C)C)CC3)cc2)cc(C(=O)NCc2c(C)cc(C)[nH]c2=O)c1C)C1CCOCC1`, the DC50 in series [1] is 0.14 µM. Also, the values for the IC50 (in series [2]; in [3]; in the series with MDA-MB-453) were 0.0086 µM, 0.062 µM and 2.3 µM, respectively.

In the series on SU-DHL-6 [4], `CCN(c1cc(-c2ccc(CN3CCN(C(=O)c4cnn(CCOCCOCCOCCNC(=O)CN5CCN(C(=O)N6C(c7ccc(OC)cc7OC(C)C)=N[C@H](c7ccc(Cl)cc7)[C@@H]6c6ccc(Cl)cc6)CC5=O)n4)CC3)cc2)cc(C(=O)NCc2c(C)cc(C)[nH]c2=O)c1C)C1CCOCC1` gave an IC50 of 3.75 µM. In addition, the “Ratio IC50” value in the series on SU-DHL-6 [5] is listed as 6.

With `Cc1sc2c(c1C)C(c1ccc(Cl)cc1)=N[C@H](CC(=O)NCCCCOc1ccc(C3CC(c4ccc(Br)cc4)=NN3C(=O)CCl)cc1)c1nnc(C)n1-2` (stereo partly specified), in series [6], it took 14 µM to reach half-maximal degradation (DC50).

On to `COc1cc2nc(NCCNC(=O)CCCCC(=O)NO)nc(NC3CCN(Cc4ccccc4)CC3)c2cc1OC`, for which the IC50 against Histone deacetylase [7] is 5.73 µM; in series [8] it was 7.14 µM; in the series on MDA-MB-231 it was 10 µM; in the series on MCF7 it was 10 µM; with A549, 10 µM; on Histone deacetylase [9], 13.8 µM. In the series “in vitro”, this compound registered a half-inhibitory concentration (IC50) at 72 h of 19.9 µM.

In the series on SU-DHL-6 [4], `CCN(c1cc(-c2ccc(CN3CCOCC3)cc2)cc(C(=O)NCc2c(C)cc(C)[nH]c2=O)c1C)C1CCOCC1` [TAZEMETOSTAT] had an IC50 of 21.9 µM.

Turning to `N=C(N)NCCC[C@H](N)C(=O)NCC(=O)N[C@@H](CCCN)C(=O)N[C@H](CCCNC(=N)NCCCSC[C@H]1O[C@@H](n2cnc3c(N)ncnc32)[C@H](O)[C@@H]1O)C(N)=O`, the midpoint of inhibition in [10], the IC50, lay at 0.00042 µM.
